Results on two molecules are retold here after patent US20250250312A1, “BIFUNCTIONAL PEPTIDE WITH MU[…] VIRUS BINDING PROPERTIES” (priority 2022, published 2025).

In assay [1] the target is receptor binding domain (RBD) of SARS-CoV-2 (2019-nCoV) (Severe acute respiratory syndrome coronavirus 2, UniProt P0DTC2). The assay is described as follows: biochemical. Conditions: Table 4, cysteines in reduced state, MST.
Assay [2] deals with receptor binding domain (RBD) of SARS-CoV-2 wildtype (2019-nCoV) (SARS-CoV-2), P0DTC2.

`CC(C)C[C@H](NC(=O)[C@H](Cc1ccccc1)NC(=O)[C@@H](NC(=O)[C@H](CCCCN)NC(=O)[C@H](C)NC(=O)[C@H](CCC(N)=O)NC(=O)[C@H](CCC(=O)O)NC(=O)[C@@H](N)CCC(=O)O)[C@@H](C)O)C(=O)N[C@@H](CC(=O)O)C(=O)N[C@@H](CCCCN)C(=O)N[C@@H](Cc1ccccc1)C(=O)N[C@@H](CC(N)=O)C(=O)N[C@@H](Cc1c[nH]cn1)C(=O)N[C@@H](CCC(=O)O)C(=O)N[C@@H](C)C(=O)N[C@@H](CCC(=O)O)C(=O)N[C@@H](CC(=O)O)C(=O)N[C@@H](CS)C(=O)N[C@@H](Cc1ccccc1)C(=O)N[C@@H](Cc1ccc(O)cc1)C(=O)N[C@@H](CCC(N)=O)C(=O)N[C@@H](CS)C(=O)N[C@@H](CO)C(=O)O` [p4C18, 22] came in with a dissociation constant (Kd) in assay [1] of 0.218 µM.

B1: p6(K)8(D)12 (peptide)
peptide: EEQAKTFKDKFDHEAEDLFYQSSGLGKGDFR
modifications: not checked
For the molecule B1, the equilibrium dissociation constant (Kd) in assay [2] is 5 µM.
